The text below walks through data of article PMC6864091, “A LONELY GUY protein of Bordetella pertussis with unique features is related to oxidative stress” (Scientific Reports, 2019).

Broadly, the Kd is the constant that tells how readily two partners part at equilibrium. Higher therefore signals weaker binding. Usually stoichiometry N stands for a count of units in the complex or per binding partner.

For series [1], the target named is T1, BP1253 (BpLOG) (Bordetella pertussis, UniProt Q7VYQ7).
T1 construct: recombinant BP1253 with C-terminal 6x His tag (BP1253-His)
Kind of series: SPR (Biacore T200, steady state, amine-coupled BP1253-His); cleavage also shown by TLC. The series is classed as binding. In general terms: SPR reads the build-up and loss of mass on a sensor chip optically.

The target of series [2] is T1, BP1253 (BpLOG). Kind of series: SPR (data not shown). The class given is binding.
Series [3] concerns the molecule itself. Kind of series: SEC; analytical SEC, BEH200 column 4.6 x 300 mm, 10 mM NaH2PO4, 400 mM (NH4)2SO4 pH 6.0; samples of 0.62 mg/ml and 3 mg/ml; mass from a calibration curve of standard proteins. In general terms: SEC sorts molecules by how far they enter the pores of the column.

On to `Nc1ncnc2c1ncn2[C@@H]1O[C@H](COP(=O)(O)O)[C@@H](O)[C@H]1O` [AMP], for which the affinity at BP1253 (BpLOG) [1], expressed as Kd, was 5.7 µM.

`Nc1nc2c(ncn2[C@@H]2O[C@H](COP(=O)(O)O)[C@@H](O)[C@H]2O)c(=O)[nH]1` [GMP] yielded a Kd at BP1253 (BpLOG) [1] of 38.6 µM.

Take `Cc1cn([C@H]2C[C@H](O)[C@@H](COP(=O)(O)O)O2)c(=O)[nH]c1=O` [TMP]: the Kd on BP1253 (BpLOG) [2] worked out at 2400 µM.

Molecule `O=c1ccn([C@@H]2O[C@H](COP(=O)(O)O)[C@@H](O)[C@H]2O)c(=O)[nH]1` [UMP] gave a Kd on BP1253 (BpLOG) [2] of 6100 µM.

B1: BP1253 (enzyme, Bordetella pertussis, UniProt Q7VYQ7 1-209, looked up)
chain: MSEIKTAAEKLADIGPAVSMFGSARISRESPYYETCAAISAALAGAGFAIIAGGGPGIMEAANKGAFEAGGTSVGLNISLPHEAHNNEYQTISLSFEYFYSRKATFFMHSMAYVAMPGGFGTLDELFEALTLIQTGKVPPAPIVLVGSEFWHGLVDWLGEQLLANGMIAAHDLNLFIIEDDPAKVVRKVVEFHDKQGRTDSQYAPSLPA
notes: also called BpLOG; BP1253-His
Consider B1, for which the “stoichiometry N” value in series [3] was 2.
